{
  "source": "ChEMBL document CHEMBL5329192",
  "about": "“Synthesis, biological activities, and future perspectives of steroidal monocyclic pyridines” (RSC Med Chem, 2023)",
  "key": {"ECa-109 cell line": {"system": "ECa-109 cell line", "assay": "Cytotoxicity against human Eca-109 cells assessed as reduction in cell viability incubated for 72 hrs by MTT assay", "type": "functional, cell-based", "settings": "ECa-109, 72 h"}, "MGC-803": {"system": "MGC-803", "assay": "Cytotoxicity against human MGC-803 cells assessed as reduction in cell viability incubated for 72 hrs by MTT assay", "type": "functional, cell-based", "settings": "MGC-803, 72 h"}, "PC-3": {"system": "PC-3", "assay": "Cytotoxicity against human PC-3 cells assessed as reduction in cell viability incubated for 72 hrs by MTT assay", "type": "functional, cell-based", "settings": "PC-3, 72 h"}, "MCF7": {"system": "MCF7", "assay": "Cytotoxicity against human MCF7 cells assessed as reduction in cell viability incubated for 72 hrs by MTT assay", "type": "functional, cell-based", "settings": "MCF7, 72 h"}, "A549": {"system": "A549", "assay": "Cytotoxicity against human A549 cells assessed as reduction in cell viability incubated for 72 hrs by MTT assay", "type": "functional, cell-based", "settings": "A549, 72 h"}, "[1]": {"assay": "Acute toxicity in ip dosed albino rat administered twice daily for 14 days", "type": "organism-based", "settings": "in vivo, time 14 day"}, "Rattus norvegicus [2]": {"system": "Rattus norvegicus", "assay": "Anti-androgen activity against albino rat assessed as mass gain of prostate gland at 0.1 mg/kg, sc administered for 7 days", "type": "functional", "settings": "time 7 day"}, "Rattus norvegicus [3]": {"system": "Rattus norvegicus", "assay": "Anti-anabolic activity against albino rat assessed as mass gain of levator ani-muscle at 0.1 mg/kg, sc administered for 7 days", "type": "functional", "settings": "time 7 day"}, "Rattus norvegicus [4]": {"organism": "Rattus norvegicus", "assay": "Ratio of anti-anabolic activity against albino rat assessed as reduction in mass of levator ani-muscle to anti-androgenic activity against albino rat assessed as mass gain of prostate gland", "type": "functional"}, "[5]": {"assay": "Cytotoxicity against human HEp-2 cells assessed as reduction in cell viability incubated for 48 hrs by MTT assay", "type": "toxicity, cell-based"}, "HeLa": {"system": "HeLa", "assay": "Antiproliferative activity against human HeLa cells assessed as reduction in cell viability by MTT assay", "type": "functional, cell-based"}, "[6]": {"assay": "Antiproliferative activity against human […] cells assessed as reduction in cell viability by MTT assay", "type": "functional, cell-based"}},
  "data": [
    {"smiles": "COc1ccccc1-c1cc([C@H]2CC[C@H]3[C@@H]4CC=C5C[C@@H](O)CC[C@]5(C)[C@H]4CC[C@]23C)nc(N)c1C#N", "values": [
      {"measurement": "IC50", "setting": "ECa-109 cell line", "value": 19.7, "unit": "µM"},
      {"measurement": "IC50", "setting": "MGC-803", "value": 17, "unit": "µM"},
      {"measurement": "IC50", "setting": "PC-3", "value": 8, "unit": "µM"},
      {"measurement": "IC50", "setting": "MCF7", "value": 45.2, "unit": "µM"},
      {"measurement": "IC50", "setting": "A549", "value": 20.7, "unit": "µM"}
    ]},
    {"smiles": "CCOc1nc(-c2ccccc2)c2c(c1C#N)[C@@]1(C)CC[C@H]3[C@@H](CC[C@H]4C[C@@H](O)CC[C@@]43C)[C@@H]1C2", "values": [
      {"measurement": "LD50 at 336 h", "setting": "[1]", "value": 4890, "unit": "mg/kg"},
      {"measurement": "Activity", "setting": "Rattus norvegicus [2]", "value": 0.321, "unit": "g"},
      {"measurement": "Activity", "setting": "Rattus norvegicus [3]", "value": 0.494, "unit": "g"},
      {"measurement": "Ratio", "setting": "Rattus norvegicus [4]", "value": 1.54}
    ]},
    {"smiles": "CC(=O)O[C@H]1CC[C@@]2(C)C(=CC[C@H]3[C@@H]4CC[C@H](c5cc(-c6cccc(Cl)c6)c(C#N)c(N)n5)[C@@]4(C)CC[C@@H]32)C1", "values": [
      {"measurement": "CC50 at 48 h", "setting": "[5]", "value": 181, "unit": "µM"}
    ]},
    {"smiles": "C[C@]12CC[C@H]3[C@@H](CC=C4C[C@@H](O)CC[C@@]43C)[C@@H]1CC[C@@H]2c1cc(-c2ccc(F)cc2F)c(C#N)c(N)n1", "values": [
      {"measurement": "IC50", "setting": "ECa-109 cell line", "value": 58, "unit": "µM"},
      {"measurement": "IC50", "setting": "MGC-803", "value": 22.7, "unit": "µM"},
      {"measurement": "IC50", "setting": "PC-3", "value": 3.5, "unit": "µM"},
      {"measurement": "IC50", "setting": "MCF7", "value": 30.3, "unit": "µM"},
      {"measurement": "IC50", "setting": "A549", "value": "> 64", "unit": "µM"}
    ]},
    {"smiles": "COc1ccccc1-c1cc([C@H]2CC[C@H]3[C@@H]4CC=C5C[C@@H](OC(C)=O)CC[C@]5(C)[C@H]4CC[C@]23C)nc(N)c1C#N", "values": [
      {"measurement": "CC50 at 48 h", "setting": "[5]", "value": 299, "unit": "µM"}
    ]},
    {"smiles": "CCCc1cc2c(cn1)C[C@H]1[C@@H]3CC=C4C[C@@H](OC(C)=O)CC[C@]4(C)[C@H]3CC[C@]21C", "values": [
      {"measurement": "IC50", "setting": "HeLa", "value": "≥ 100", "unit": "µM"},
      {"measurement": "IC50", "setting": "[6]", "value": "≥ 100", "unit": "µM"}
    ]},
    {"smiles": "CCOC1(OCC)NC(c2ccccc2)=C2C[C@H]3[C@@H]4CC[C@H]5C[C@@H](O)CC[C@]5(C)[C@H]4CC[C@]3(C)C2=C1C#N", "values": [
      {"measurement": "LD50 at 336 h", "setting": "[1]", "value": 4900, "unit": "mg/kg"},
      {"measurement": "Activity", "setting": "Rattus norvegicus [2]", "value": 0.345, "unit": "g"},
      {"measurement": "Activity", "setting": "Rattus norvegicus [3]", "value": 0.486, "unit": "g"},
      {"measurement": "Ratio", "setting": "Rattus norvegicus [4]", "value": 1.41}
    ]},
    {"smiles": "C[C@]12CC[C@H](O)C[C@@H]1CC[C@@H]1[C@@H]2CC[C@]2(C)c3c(C#N)c(S)nc(-c4ccccc4)c3C[C@@H]12", "values": [
      {"measurement": "LD50 at 336 h", "setting": "[1]", "value": 4910, "unit": "mg/kg"},
      {"measurement": "Activity", "setting": "Rattus norvegicus [2]", "value": 0.421, "unit": "g"},
      {"measurement": "Activity", "setting": "Rattus norvegicus [3]", "value": 0.577, "unit": "g"},
      {"measurement": "Ratio", "setting": "Rattus norvegicus [4]", "value": 1.37}
    ]},
    {"smiles": "COc1cccc(-c2cc([C@H]3CC[C@H]4[C@@H]5CC=C6C[C@@H](OC(C)=O)CC[C@]6(C)[C@H]5CC[C@]34C)nc(N)c2C#N)c1", "values": [
      {"measurement": "CC50 at 48 h", "setting": "[5]", "value": 160, "unit": "µM"}
    ]},
    {"smiles": "C[C@]12CC[C@H]3[C@@H](CC=C4C[C@@H](O)CC[C@@]43C)[C@@H]1CC[C@@H]2c1cc(-c2ccc(Cl)cc2)c(C#N)c(N)n1", "values": [
      {"measurement": "IC50", "setting": "ECa-109 cell line", "value": 48.9, "unit": "µM"},
      {"measurement": "IC50", "setting": "MGC-803", "value": 55, "unit": "µM"},
      {"measurement": "IC50", "setting": "PC-3", "value": 15.7, "unit": "µM"},
      {"measurement": "IC50", "setting": "MCF7", "value": 26.2, "unit": "µM"},
      {"measurement": "IC50", "setting": "A549", "value": 43.9, "unit": "µM"}
    ]},
    {"smiles": "C[C@]12CC[C@H]3[C@@H](CCC4=CC(=O)CC[C@@]43C)[C@@H]1CC[C@@H]2O", "note": "[TESTOSTERONE]", "values": [
      {"measurement": "LD50 at 336 h", "setting": "[1]", "value": 2750, "unit": "mg/kg"},
      {"measurement": "Activity", "setting": "Rattus norvegicus [2]", "value": 0.76, "unit": "g"},
      {"measurement": "Activity", "setting": "Rattus norvegicus [3]", "value": 0.204, "unit": "g"},
      {"measurement": "Ratio", "setting": "Rattus norvegicus [4]", "value": 0.27}
    ]},
    {"smiles": "C[C@]12CC[C@H](O)C[C@@H]1CC[C@@H]1[C@@H]2CC[C@]2(C)c3c(C#N)c(S)nc(-c4ccc(Cl)cc4)c3C[C@@H]12", "values": [
      {"measurement": "LD50 at 336 h", "setting": "[1]", "value": 4910, "unit": "mg/kg"},
      {"measurement": "Activity", "setting": "Rattus norvegicus [2]", "value": 0.345, "unit": "g"},
      {"measurement": "Activity", "setting": "Rattus norvegicus [3]", "value": 0.48, "unit": "g"},
      {"measurement": "Ratio", "setting": "Rattus norvegicus [4]", "value": 1.39}
    ]},
    {"smiles": "CC(=O)O[C@H]1CC[C@@]2(C)C(=CC[C@H]3[C@@H]4CC[C@H](c5cc(-c6ccc(Cl)cc6)c(C#N)c(N)n5)[C@@]4(C)CC[C@@H]32)C1", "values": [
      {"measurement": "CC50 at 48 h", "setting": "[5]", "value": 252, "unit": "µM"}
    ]},
    {"smiles": "CCOC1(OCC)NC(c2ccc(F)cc2)=C2C[C@H]3[C@@H]4CC[C@H]5C[C@@H](O)CC[C@]5(C)[C@H]4CC[C@]3(C)C2=C1C#N", "values": [
      {"measurement": "LD50 at 336 h", "setting": "[1]", "value": 4900, "unit": "mg/kg"},
      {"measurement": "Activity", "setting": "Rattus norvegicus [2]", "value": 0.432, "unit": "g"},
      {"measurement": "Activity", "setting": "Rattus norvegicus [3]", "value": 0.622, "unit": "g"},
      {"measurement": "Ratio", "setting": "Rattus norvegicus [4]", "value": 1.44}
    ]},
    {"smiles": "CCCCc1cc2c(cn1)C[C@H]1[C@@H]3CC=C4C[C@@H](OC(C)=O)CC[C@]4(C)[C@H]3CC[C@]21C", "values": [
      {"measurement": "IC50", "setting": "HeLa", "value": "≥ 100", "unit": "µM"},
      {"measurement": "IC50", "setting": "[6]", "value": "≥ 100", "unit": "µM"}
    ]},
    {"smiles": "C[C@]12CC[C@H]3[C@@H](CC=C4C[C@@H](O)CC[C@@]43C)[C@@H]1CC[C@@H]2c1cc(-c2ccccc2F)c(C#N)c(N)n1", "values": [
      {"measurement": "IC50", "setting": "ECa-109 cell line", "value": 17.8, "unit": "µM"},
      {"measurement": "IC50", "setting": "MGC-803", "value": 9.4, "unit": "µM"},
      {"measurement": "IC50", "setting": "PC-3", "value": 3.2, "unit": "µM"},
      {"measurement": "IC50", "setting": "MCF7", "value": 10.1, "unit": "µM"},
      {"measurement": "IC50", "setting": "A549", "value": 28.8, "unit": "µM"}
    ]},
    {"smiles": "CC(=O)O[C@H]1CC[C@@]2(C)C(=CC[C@@H]3[C@@H]2CC[C@]2(C)c4cc(-c5ccc(F)cc5)ncc4C[C@@H]32)C1", "values": [
      {"measurement": "IC50", "setting": "HeLa", "value": "≥ 100", "unit": "µM"},
      {"measurement": "IC50", "setting": "[6]", "value": "≥ 100", "unit": "µM"}
    ]},
    {"smiles": "COc1ccc(-c2cc([C@H]3CC[C@H]4[C@@H]5CC=C6C[C@@H](OC(C)=O)CC[C@]6(C)[C@H]5CC[C@]34C)nc(N)c2C#N)cc1", "values": [
      {"measurement": "CC50 at 48 h", "setting": "[5]", "value": "> 400", "unit": "µM"}
    ]}
  ]
}
